Test results published in article PMC13289212, “HIVIL: A human in vitro inflammatory liver model recapitulates immune-associated drug effects with high predictivity” (NAM journal, 2025).
Where two headings read alike, the source gives them in different places.

Experiments:
TNFα = TNFα ELISA in HIVIL (iKCs co-cultured with iHeps, LPS, 48 hr); format: cell-based, human; details: low dose 3.125 μM and 6.25 μM
Text: Human iPSC cell line iPS (IMR90)-4 was purchased from WiCell Research Institute (Madison, WI), and maintained with a feeder-free method according to the instruction from […] Technologies (Vancouver, BC, Canada). The protocol of differentiation towards iKCs and iHeps as described previously with slight modification ([Tasnim et al., 2019]; [Cai et al., 2012]), respectively. […] More details are provided in Supplementary Methods. After differentiation, iKCs was harvested using 0.05 % trypsin-EDTA (Gibco, Waltham, Massachusetts, USA), while iHeps were dissociated with TrypLE^TM (Gibco). iHep suspension was further filtered through a 40 µm cell strainer to remove extracellular matrix clumps. Cell suspension was centrifuged at 1000 rpm for 5 min. For co-culture set up, tissue culture plates were coated with Rat tail collagen I (Gibco) diluted 100-fold in 0.02 N acetic acid, and incubated at 37 °C for 1 h and washed 3 times with PBS. According to the protocol optimized by [Tasnim et al. (2019)], iKCs was firstly seeded at a density of 14,000 per well on 96-well plate with Advanced DMEM (plus supplements) containing 5 % FBS. On the following day, iHeps were added at a density of 35,000 per well in Williams’ Medium E (plus supplements) (iHep: iKCs ratio = 2.5: 1). This reflects the physiological ratio of these cells in vivo under inflammatory conditions ([Tasnim et al., 2021]). Fresh media containing drugs was applied to co-cultures the next day. 50,000 cells were seeded to establish iHeps monoculture. THP-1 cells were kindly obtained from Dr. Eliza Fong and cultured as described by [Zeng et al. (2015)]. Details provided in Supplementary Methods.
Stock solutions of drugs were prepared in dimethyl sulfoxide (DMSO) and dissolved in medium prior to use. […] For these two drugs, the highest DMSO concentration was 1 %. Supernatant was collected at 48 hr for measurement of cytokines, and remaining cells were subjected to viability assay prior to lysis for RNA extraction.
Enzyme-linked immunosorbent assay (ELISA) for measurement of cytokines: Interleukin-6 (IL-6), interleukin-10 (IL-10) and tumor necrosis factor alpha (TNFα) levels in the media were measured using the corresponding human-based ELISA kits (Abcam, Cambridge, United Kingdom) according to manufacturer’s instructions. The cytokine production from dosed cells was normalized with the viability value from the same well. The normalized cytokine level upon drug treatments was further presented as percentage of DMSO+LPS. […] This normalization approach has been used in previous studies (Rose et al. 2016).

iHeps = experiment: RNA-Seq of iHeps from mono-culture and HIVIL; format: cell-based, human
Text: Subsequent analyses compared gene fold-changes of treated samples against their respective vehicle controls: "m" and "c" indicate mono- and co-culture, and "–" and "+" represent the absence or presence of LPS. […] However, this is only applicable for co-cultures where downstream effects can be traced back to cytokine changes, and not in monocultures where significant upstream cytokine changes are not observed.
RNA extraction was done using TRIzol and analyzed on a Tapestation 4200 to determine RNA Integrity Number (RIN). Only samples with RIN > 8 were sequenced. Illumina Stranded mRNA multiplexing was done with unique 96 dual indices, and all samples sequenced on the same lane of NovaSeq 6000 S4 flowcell. Data normalization was performed using DESeq2 v1.32.0 ([Love et al., 2014]) on the R programming language v4.1.0 ([R Core Team, 2021]; [R Team, 2021]). Gene enrichment analysis was done with fgsea v1.18 ([Korotkevich et al., 2021]) with gene sets downloaded from MSigDB and KEGG pathway visualization done via pathview v1.32 ([Kanehisa et al., 2021]; [Luo and Brouwer, 2013]). Other plots were produced using ggplot2 v3.3.5 and scatterplot3d v0.3-41 ([Ligges and Maechler, 2003]). The RNA-Seq dataset has been deposited in NCBI under accession number GSE189320.
RNA seq and analysis: After 48 hr of drug treatment, iHeps cultured in mono-culture and HIVIL were both subjected to TrypLE^TM dissociation, and subsequently sorted with magnetic separation with the CD163 Microbead kit (Miltenyi Biotec, Bergisch Gladbach, Germany) to obtain only iHeps. Flow-through was collected, pelleted down and snap-frozen in liquid nitrogen, before storage at -80°C. Lysates were sent to the Genome Research Informatics and Data Science platform (Agency for Science, Technology and Research, Singapore). RNA extraction was done using TRIzol and analyzed on a Tapestation 4200 to determine RNA Integrity Number (RIN). All sequenced samples included for further analysis had RIN > 8. Illumina Stranded mRNA multiplexing was done with unique 96 dual indices, and all samples sequenced on the same lane of NovaSeq 6000 S4 flowcell. Sequenced reads were trimmed for adaptor sequence using Trim Galore v0.6.4, then aligned to human genome build GRCh38 using STAR_2.6.1d. Aligned reads are summarized into count matrices using featureCounts v1.6.4 with the gene annotation file from GENCODE v37.
Data normalization was performed using DESeq2 v1.32.0 (Love et al. 2014) on the R programming language v4.1.0 (Core Team 2021; Team 2021). Gene enrichment analysis was done with fgsea v1.18 (Korotkevich et al. 2021) with gene sets downloaded from MSigDB and KEGG pathway visualization done via pathview v1.32 (Kanehisa et al. 2021; Luo and Brouwer 2013). Other plots were produced using ggplot2 v3.3.5 and scatterplot3d v0.3-41 (Ligges and Maechler 2003). The RNA-Seq dataset has been deposited in NCBI under accession number GSE189320.

[1] = Cammett et al. 2009, Mendes et al. 2014, cited from earlier work
IL-10 = IL-10 ELISA in HIVIL (iKCs co-cultured with iHeps, LPS, 48 hr); format: cell-based, human; details: result in words
Text: Human iPSC cell line iPS (IMR90)-4 was purchased from WiCell Research Institute (Madison, WI), and maintained with a feeder-free method according to the instruction from […] Technologies (Vancouver, BC, Canada). The protocol of differentiation towards iKCs and iHeps as described previously with slight modification ([Tasnim et al., 2019]; [Cai et al., 2012]), respectively. […] More details are provided in Supplementary Methods. After differentiation, iKCs was harvested using 0.05 % trypsin-EDTA (Gibco, Waltham, Massachusetts, USA), while iHeps were dissociated with TrypLE^TM (Gibco). iHep suspension was further filtered through a 40 µm cell strainer to remove extracellular matrix clumps. Cell suspension was centrifuged at 1000 rpm for 5 min. For co-culture set up, tissue culture plates were coated with Rat tail collagen I (Gibco) diluted 100-fold in 0.02 N acetic acid, and incubated at 37 °C for 1 h and washed 3 times with PBS. […]
Enzyme-linked immunosorbent assay (ELISA) for measurement of cytokines: Interleukin-6 (IL-6), interleukin-10 (IL-10) and tumor necrosis factor alpha (TNFα) levels in the media were measured using the corresponding human-based ELISA kits (Abcam, Cambridge, United Kingdom) according to manufacturer’s instructions. […]

With `N[C@@H]1[C@H]2CN(c3nc4c(cc3F)c(=O)c(C(=O)O)cn4-c3ccc(F)cc3F)C[C@@H]12` [TVX, Trovafloxacin] the TNFα induction (TNFα) was 1.5 fold, the “pro-inflammatory cytokine and chemokine mRNA expression” value (iHeps; LPS-treated co-cultures) was “significantly increased” and the FADD upregulation (iHeps; cTVX+, 25 µM) was 1.7 fold. The TNFα transcription increase (iHeps; cTVX+, 25 µM) was 2.3 fold, the cIAP-2 upregulation (iHeps; cTVX+, 25 µM) was 3 fold and the “caspase 3 upregulation” value (iHeps; cTVX+, 25 µM) was 1.8 fold. For the same compound, the IL-8 transcription increase (iHeps; co-culture, cTVX+ vs. cVeh+, 25 µM) was 3.2 fold, the TNFα transcription (iHeps; mTVX+ compared to mVeh+, 25 µM) was 0.9 fold and the cIAP-2 upregulation (iHeps; mTVX+, 25 µM) was 1.5 fold. For the same compound, the IL-8 transcription increase (iHeps; mono-culture, mTVX+ vs. mVeh+, 25 µM) was 1.3 fold, the “IL-6 transcription in iHeps” value (iHeps; regardless of culture conditions, result in words) was “slightly decreased” and the Cmax ([1]; ref in each cell: Ademisoye et al. 2018, Xu et al. 2008, Agabeyoglu and Incecayir 2009, Rojanasthien et al. 2007, Reunanen et al. 1992, Li et al. 2002, Hong-mei et al. 2013, Bareggi et al. 1987, Jiang et al. 2008) was 5 µM. For the same compound, the Cmax ([1]; ref in each cell: Xu et al. 2008) was 5 µM and the IL-10 response (IL-10) was “dose-dependent IL-10 decrease”.
